Test results as given in ChEMBL document CHEMBL3639007, “Cyclohexyl amide derivatives as CRF receptor antagonists” (2014).
pIC50: −log10 of the molar value. “And” between values parts separate entries of the source, which are not always exact repeats. Identical values can stand only once.

The molecules below were run against T1, Corticotropin-releasing factor receptor 1 (Homo sapiens, UniProt P34998) (assay: (§1) Homogeneous Time-Resolved Fluorescence Assay: Chinese hamster ovary (CHO) cells expressing either the human or rat recombinant CRF-1 or human CRF-2alpha (Chen et al, Proc Natl Acad Sci USA 90, 8967-8971, 1993; Liaw et al, Endocrinology 137, 72-77, 1996) are propagated in Dulbecco's modified Eagle medium supplemented with 10% foetal calf serum, non-essential amino acids, 100 U/ml penicillin, 100 mg/l streptomycin and 1 g/l geneticin. CHO cells expressing the rat CRF-2beta receptor (Wu et al, Endocrinology 148, 1675-1687, 2007) are propagated in HAM's-F12 Glutamax supplemented with 10% foetal calf serum, 100 IU/ml penicillin, 100 mg/l streptomycin, 600 ug/ml hygromycin, 10 ug/ml blasticidin and induced with 1 ug/ml of tetracyclin for 24 hours prior to experimentation. For cyclic AMP determinations the Homogeneous Time-Resolved Fluoresce (HTRF) CAMP dynamic 2 kit (Cisbio International, France) was used as per manufacturers' instructions.).
T1 sequence (P34998 whole entry): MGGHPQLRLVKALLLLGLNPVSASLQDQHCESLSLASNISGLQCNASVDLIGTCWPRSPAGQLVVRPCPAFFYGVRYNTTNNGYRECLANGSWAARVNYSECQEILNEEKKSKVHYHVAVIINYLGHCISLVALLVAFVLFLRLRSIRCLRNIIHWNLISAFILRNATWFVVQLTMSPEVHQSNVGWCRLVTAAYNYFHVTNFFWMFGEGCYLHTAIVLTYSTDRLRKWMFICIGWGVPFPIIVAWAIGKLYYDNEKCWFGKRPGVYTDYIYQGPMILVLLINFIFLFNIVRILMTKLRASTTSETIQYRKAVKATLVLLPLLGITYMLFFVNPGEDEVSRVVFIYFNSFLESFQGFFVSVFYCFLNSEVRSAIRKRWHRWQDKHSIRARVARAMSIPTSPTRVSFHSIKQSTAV
Format: cell-based
In the case of `COc1ccc(-c2c(NC[C@H]3CC[C@H](NC(=O)c4cc(C(F)(F)F)ccc4Cl)CC3)n[nH]c2C)c(Cl)c1`, the pIC50 was 7.46. `Cc1ncc(Cl)cc1C(=O)N[C@H]1CC[C@H](Cn2cc3c(n2)CCCC3)CC1` was tested, and the pIC50 was 6.50. `CCc1cc(CC)n(C[C@H]2CC[C@H](NC(=O)c3cc(Cl)cnc3C)CC2)n1` gave a pIC50 of 6.80. `Cc1cc(-c2ccc3c(c2)OCO3)nn1C[C@H]1CC[C@H](NC(=O)c2cc(C(F)(F)F)ccc2Cl)CC1` gave a pIC50 of 7.23. `Cc1cc(C)n(C[C@H]2CC[C@H](NC(=O)c3cc(Cl)cnc3C)CC2)n1` was tested, and the pIC50 was 7.06 and 6.58. For `CCc1cc(CC)n(C[C@H]2CC[C@H](NC(=O)c3cc(C(F)(F)F)ccc3Cl)CC2)n1`, the pIC50 was 7.68. Work on `Cc1cc(C)n(C[C@H]2CC[C@H](NC(=O)c3cc(C(F)(F)F)cnc3C)CC2)n1` yielded a pIC50 of 6.20. Molecule `Cc1ncc(Cl)cc1C(=O)N[C@H]1CC[C@H](Cn2nc(-c3cccnc3)cc2C)CC1` has a pIC50 of 6.85. For `Cc1ncc(Cl)cc1C(=O)N[C@H]1CC[C@H](Cn2nc(CO)cc2C)CC1`, the pIC50 was 6.18. For `COc1ccc(-c2cc(C)n(C[C@H]3CC[C@H](NC(=O)c4cc(C(F)(F)F)ccc4Cl)CC3)n2)cc1`, the pIC50 was 7.09. Work on `O=C(N[C@H]1CC[C@H](Cn2ncc3c2CCC3)CC1)c1cc(C(F)(F)F)ccc1Cl` yielded a pIC50 of 6.77. In the case of `O=C(N[C@H]1CC[C@H](Cn2cc(Cl)c(CO)n2)CC1)c1cc(C(F)(F)F)ccc1Cl`, the pIC50 was 7.02. `Cc1cn(C[C@H]2CC[C@H](NC(=O)c3cc(C(F)(F)F)ccc3Cl)CC2)nc1C` was tested, and the pIC50 was 6.78. Work on `Cc1cc(CO)n(C[C@H]2CC[C@H](NC(=O)c3cc(Cl)cnc3C)CC2)n1` yielded a pIC50 of 5.16. Molecule `Cc1cnn(C[C@H]2CC[C@H](NC(=O)c3cc(C(F)(F)F)ccc3Cl)CC2)c1` has a pIC50 of 6.88. With `Cc1ncc(Cl)cc1C(=O)N[C@H]1CC[C@@H](Cn2nc(-c3ccc(F)cc3)cc2C)CC1` the pIC50 was 6.74. For `CCc1[nH]nc(NC[C@H]2CC[C@H](NC(=O)c3cc(Cl)cnc3C)CC2)c1C`, the pIC50 was 6.87. Molecule `Cc1ncc(Cl)cc1C(=O)N[C@H]1CC[C@H](Cn2nc(C)c(Cl)c2C)CC1` has a pIC50 of 6.59. In the case of `CCc1cc(C)nn1C[C@H]1CC[C@H](NC(=O)c2cc(C(F)(F)F)ccc2Cl)CC1`, the pIC50 was 7.66. `COc1cc(C)nn1C[C@H]1CC[C@H](NC(=O)c2cc(C(F)(F)F)ccc2Cl)CC1` showed a pIC50 of 7.17.

These molecules were tested against T2, Corticotropin-releasing factor receptor 2 (Homo sapiens, UniProt Q13324) (assay: as §1).
T2 sequence (Q13324 whole entry): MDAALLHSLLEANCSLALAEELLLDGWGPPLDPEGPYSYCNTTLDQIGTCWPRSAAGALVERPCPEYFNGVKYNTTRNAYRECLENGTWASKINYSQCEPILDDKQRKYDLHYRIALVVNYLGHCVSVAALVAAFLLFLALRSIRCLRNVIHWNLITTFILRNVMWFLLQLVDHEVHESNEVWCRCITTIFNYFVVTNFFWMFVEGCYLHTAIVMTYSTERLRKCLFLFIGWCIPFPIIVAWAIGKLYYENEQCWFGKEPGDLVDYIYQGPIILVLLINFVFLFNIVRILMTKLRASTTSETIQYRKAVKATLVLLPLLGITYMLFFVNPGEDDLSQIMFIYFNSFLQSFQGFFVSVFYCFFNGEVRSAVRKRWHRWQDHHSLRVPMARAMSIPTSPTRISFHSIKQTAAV
Format: cell-based
`Cc1ncc(Cl)cc1C(=O)N[C@H]1CC[C@@H](Cn2nc(-c3ccccc3)cc2C)CC1` gave a pIC50 of 5.31. With `Cc1ncc(Cl)cc1C(=O)N[C@H]1CC[C@H](Cn2nc(-c3cccnc3)cc2C)CC1` the pIC50 was 5.43. Work on `CCc1cc(C)n(C[C@H]2CC[C@H](NC(=O)c3cc(C(F)(F)F)ccc3Cl)CC2)n1` yielded a pIC50 of 5.69. Work on `O=C(N[C@H]1CC[C@H](Cn2cc(Cl)c(CO)n2)CC1)c1cc(C(F)(F)F)ccc1Cl` yielded a pIC50 of 5.31. Work on `Cc1ncc(Cl)cc1C(=O)N[C@H]1CC[C@@H](Cn2nc(-c3ccc(F)cc3)cc2C)CC1` yielded a pIC50 of 5.33. `CCc1[nH]nc(NC[C@H]2CC[C@H](NC(=O)c3cc(Cl)cnc3C)CC2)c1C` showed a pIC50 of 5.31.
